The target of one data set is T1, human glucagon receptor (Homo sapiens, UniProt P47871).
T1 construct: expressed in transfected cells; host or cells: BHK cells, clone BHK hGCGR A3*25; isolated membranes
The experiment in a line: Assay (I)(b): glucagon receptor activation, CRE luciferase reporter gene assay in BHK cells. In kind it is cell-based. As to conditions: BHK cells expressing human glucagon receptor and CRE luciferase, 3 h incubation; read-out: EC50 hGlucagonR. As for the experimental part: The purpose of this assay is to test the activity, or potency, of the derivatives of the invention, in vitro. The in vitro potency is the measure of human GLP-1 receptor and/or glucagon receptor activation, respectively, in a whole cell assay.
In vitro potency was determined by measuring the response of human GLP-1 or glucagon receptor, respectively, in a reporter gene assay. The assay was performed in a stably transfected BHK cell line that expressed either the human GLP-1 receptor or the human glucagon receptor and contained the DNA for the cAMP response element (CRE) coupled to a promoter and the gene for firefly luciferase (CRE luciferase). […] When assay incubation was completed, the luciferase substrate (luciferin) was added and the enzyme converted luciferin to oxyluciferin and produced bioluminescence. The luminescence was measured as the readout for the assay.
(b) Glucagon Receptor Activation
The cells used in this assay (clone pLJ6′-4-25) were BHK cells with BHK570 as a parent cell line expressing the CRE luciferase gene (clone BHK/KZ10-20-48) and were established by further transfection with the human glucagon receptor (clone pLJ6′ in pHZ-1 vector).
The cells were cultured at 5% CO2 in DMEM medium with 10% FBS, 1× GlutaMAX, 1 mg/mL G418, 240 nM MTX (methotrexate) and 1% pen/strep (penicillin/streptomycin). They were aliquoted and stored in liquid nitrogen. Before each assay, an aliquot was taken up and washed three times in PBS before being suspended at the desired concentration in assay buffer. For 96-well plates the suspension was made to give a final concentration of 5×10 EE3 cells/well.
Assay Medium consisted of DMEM w/o phenol red, 10 mM Hepes, lx GlutaMAX, 2% Ovalbumin and 0.2% Pluronic F-68.
Cell stocks were thawed in a 37° C. water bath. Cells were washed three times in PBS. The cells were counted and adjusted to 5×10 EE3 cells/50 μl (1×10 EE5 cells/mL) in Assay Medium. A 50 μl aliquot of cells was transferred to each well in the assay plate.
Stocks of the test compounds and reference compounds were diluted to a concentration of […] in Assay Medium. Compounds were diluted 10-fold to give the following concentrations: […], 2×10 EE-7 M, 2×10 EE-8 M; 2×10 EE-9 M, 2×10 EE-10 M, 2×10 EE-11 M, 2×10 EE-12 M and 2×10 EE-13 M. For each compound a blank assay buffer control was also included.
A 50 μl aliquot of compound or blank was transferred from the dilution plate to the assay plate. Compounds were tested at the following final concentrations: 1×10 EE-6 M, 1×10 EE-7 M, 1×10 EE-8 M; 1×10 EE-9 M, 1×10 EE-10 M, 1×10 EE-11 M and 1×10 EE-12 M and 1×10 EE-13 M.
The assay plate was incubated for 3 h in a 5% CO2 incubator at 37° C. The assay plate was removed from the incubator and allowed to stand at room temperature for 15 min. A 100 μl aliquot of steadylite plus reagent was added to each well of the assay plate (reagent is light sensitive). Each assay plate was covered with aluminum foil to protect it from light and shaken for 30 min at room temperature. Each assay plate was read in a Packard TopCount NXT instrument.
The data from the TopCount instrument was transferred to GraphPad Prism software. The software performed a non-linear regression (log(agonist) vs response-Variable slope (four parameter)). EC50 values were calculated by the software and reported in pM.
For orientation: In a reporter assay the amount or activity of a reporter protein is the signal.

The next data set can be described thus: physchem. The settings on record: pH 7.5. In kind it is physicochemical. The method, boiled down:
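Peptide at 250 μM in 10 mM HEPES pH 7.5 with 1 μM Thioflavin T, incubated at 37° C with 960 rpm orbital shaking. ThT fluorescence (ex 444/em 485 nm) read every 20 min; lag-time (t0−2τ) and kapp (1/τ) from curve fit. Recovery is post-assay supernatant peptide by RP-HPLC as % of initial.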

Molecules are shown by their SMILES. *1 amine or outer side, *2 acyl side, *3 side chain or, on linkers, in order; H or OH if unused. Where a SMILES comes first, the peptide text is derived from it. Side-chain parts run from the residue outwards. [ ]: non-standard residue; d: D form. The star is where a group is joined. γGlu = O=C(O)[C@H](CCC(=O)[*:2])N[*:1]; Desaminohistidyl = O=C(CCc1c[nH]cn1)*; Aib = CC(C)(N)C(=O)O

In general, EC50 refers to the concentration at which the effect is half-maximal.

T1 sequence (P47871 26-477): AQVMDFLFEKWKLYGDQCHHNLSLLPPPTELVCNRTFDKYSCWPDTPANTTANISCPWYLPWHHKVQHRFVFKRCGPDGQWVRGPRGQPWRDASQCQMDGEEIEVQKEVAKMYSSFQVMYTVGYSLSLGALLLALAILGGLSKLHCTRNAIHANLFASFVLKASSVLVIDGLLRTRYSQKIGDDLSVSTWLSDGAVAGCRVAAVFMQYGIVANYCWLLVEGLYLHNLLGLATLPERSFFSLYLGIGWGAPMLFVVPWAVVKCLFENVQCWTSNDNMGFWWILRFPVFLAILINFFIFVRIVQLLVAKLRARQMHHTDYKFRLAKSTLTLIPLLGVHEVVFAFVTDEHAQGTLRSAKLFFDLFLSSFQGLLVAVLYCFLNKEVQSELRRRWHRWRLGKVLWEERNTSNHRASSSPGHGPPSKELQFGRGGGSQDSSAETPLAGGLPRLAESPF

Consider `CC(=O)N[C@@H](CCC(=O)N[C@@H](CCC(=O)N[C@@H](CCC(=O)NCCCC[C@H](NC(=O)[C@@H](NC(=O)[C@H](Cc1ccccc1)NC(=O)[C@H](CCC(=O)O)NC(=O)[C@H](CCC(N)=O)NC(=O)[C@H](C)NC(=O)[C@H](CCCNC(=N)N)NC(=O)[C@H](CCCNC(=N)N)NC(=O)[C@H](CO)NC(=O)[C@H](CCC(=O)O)NC(=O)[C@H](CC(C)C)NC(=O)[C@H](Cc1ccc(O)cc1)NC(=O)[C@H](CCCCN)NC(=O)[C@H](CO)NC(=O)[C@H](Cc1ccc(O)cc1)NC(=O)[C@H](CC(=O)O)NC(=O)[C@H](CO)NC(=O)[C@@H](NC(=O)[C@H](Cc1ccccc1)NC(=O)[C@@H](NC(=O)CNC(=O)[C@H](Cc1c[nH]cn1)NC(=O)[C@H](CO)NC(=O)CCc1c[nH]cn1)[C@@H](C)O)[C@@H](C)O)C(C)C)C(=O)N[C@@H](Cc1c[nH]c2ccccc12)C(=O)N[C@@H](CC(C)C)C(=O)N[C@@H](CC(C)C)C(=O)N[C@@H](CO)C(=O)N[C@H](C(=O)O)[C@@H](C)O)C(=O)O)C(=O)O)C(=O)O` [Example 18, N^ϵ24-[(4S)-4-[[(4S)-4-[[(4S)-4-acetamido-4-carboxybutanoyl]amino]-4-carboxybutanoyl]amino]-4-carboxybutanoyl]-[Imp1, His3, Glu15, Glu21, Lys24, Leu27, Ser28]-Glucagon] (Desaminohistidyl-SHGTFTSDYSKYLESRRAQEFVK([γGlu-γGlu-γGlu-Ac])WLLST-OH), for which, at human glucagon receptor, the 50% effective concentration (EC50) was found to be 6 pM. The molecule further registered a recovery at 250 μM in “physchem” of 100%.

On to `CC(=O)N[C@@H](CCC(=O)N[C@@H](CCC(=O)N[C@@H](CCC(=O)N[C@@H](CCC(=O)N[C@@H](CCC(=O)NCCCC[C@H](NC(=O)[C@@H](NC(=O)[C@H](Cc1ccccc1)NC(=O)[C@H](CCC(=O)O)NC(=O)[C@H](CCC(N)=O)NC(=O)[C@H](C)NC(=O)[C@H](CCCNC(=N)N)NC(=O)[C@H](CCCNC(=N)N)NC(=O)[C@H](CO)NC(=O)[C@H](CCC(=O)O)NC(=O)[C@H](CC(C)C)NC(=O)[C@H](Cc1ccc(O)cc1)NC(=O)[C@H](CCCCN)NC(=O)[C@H](CO)NC(=O)[C@H](Cc1ccc(O)cc1)NC(=O)[C@H](CC(=O)O)NC(=O)[C@H](CO)NC(=O)[C@@H](NC(=O)[C@H](Cc1ccccc1)NC(=O)[C@@H](NC(=O)CNC(=O)[C@H](Cc1c[nH]cn1)NC(=O)[C@H](CO)NC(=O)CCc1c[nH]cn1)[C@@H](C)O)[C@@H](C)O)C(C)C)C(=O)N[C@@H](Cc1c[nH]c2ccccc12)C(=O)N[C@@H](CC(C)C)C(=O)N[C@@H](CC(C)C)C(=O)N[C@@H](CO)C(=O)N[C@H](C(=O)O)[C@@H](C)O)C(=O)O)C(=O)O)C(=O)O)C(=O)O)C(=O)O` [Example 19, N^ϵ24-[(4S)-4-[[(4S)-4-[[(4S)-4-[[(4S)-4-[[(4S)-4-acetamido-4-carboxybutanoyl]amino]-4-carboxybutanoyl]amino]-4-carboxybutanoyl]amino]-4-carboxybutanoyl]amino]-4-carboxybutanoyl]-[Imp1, His3, Glu15, Glu21, Lys24, Leu27, Ser28]-Glucagon] (Desaminohistidyl-SHGTFTSDYSKYLESRRAQEFVK([γGlu-γGlu-γGlu-γGlu-γGlu-Ac])WLLST-OH), for which the EC50 at human glucagon receptor amounted to 6 pM. The recovery at 250 μM in “physchem” stood at 104%.

`CC(=O)N[C@@H](CCC(=O)N[C@@H](CCC(=O)N[C@@H](CCC(=O)N[C@@H](CCC(=O)NCCCC[C@H](NC(=O)[C@@H](NC(=O)[C@H](Cc1ccccc1)NC(=O)[C@H](CC(=O)O)NC(=O)[C@H](CCC(N)=O)NC(=O)[C@H](C)NC(=O)[C@H](CCCNC(=N)N)NC(=O)[C@H](CCCNC(=N)N)NC(=O)[C@H](C)NC(=O)[C@H](CC(=O)O)NC(=O)[C@H](CC(C)C)NC(=O)[C@H](Cc1ccc(O)cc1)NC(=O)[C@H](CCCCN)NC(=O)[C@H](CO)NC(=O)[C@H](Cc1ccc(O)cc1)NC(=O)[C@H](CC(=O)O)NC(=O)[C@H](CO)NC(=O)[C@@H](NC(=O)[C@H](Cc1ccccc1)NC(=O)[C@@H](NC(=O)CNC(=O)[C@H](Cc1c[nH]cn1)NC(=O)[C@H](CO)NC(=O)CCc1c[nH]cn1)[C@@H](C)O)[C@@H](C)O)C(C)C)C(=O)N[C@@H](Cc1c[nH]c2ccccc12)C(=O)N[C@@H](CC(C)C)C(=O)N[C@@H](CC(C)C)C(=O)N[C@@H](CO)C(=O)N[C@H](C(=O)O)[C@@H](C)O)C(=O)O)C(=O)O)C(=O)O)C(=O)O` [Example 20, N^ϵ24-[(4S)-4-[[(4S)-4-[[(4S)-4-[[(4S)-4-acetamido-4-carboxybutanoyl]amino]-4-carboxybutanoyl]amino]-4-carboxybutanoyl]amino]-4-carboxybutanoyl]-[Imp1, His3, Ala16, Lys24, Leu27, Ser28]-Glucagon] (Desaminohistidyl-SHGTFTSDYSKYLDARRAQDFVK([γGlu-γGlu-γGlu-γGlu-Ac])WLLST-OH): at human glucagon receptor, the EC50 came out at 4 pM. Further, the recovery at 250 μM in the data set “physchem” is 105%.

As to `CC(=O)N[C@@H](CCC(=O)N[C@@H](CCC(=O)N[C@@H](CCC(=O)N[C@@H](CCC(=O)NCCCC[C@H](NC(=O)[C@@H](NC(=O)[C@H](Cc1ccccc1)NC(=O)[C@H](CC(=O)O)NC(=O)[C@H](CCC(N)=O)NC(=O)[C@H](C)NC(=O)[C@H](CCCNC(=N)N)NC(=O)[C@H](CCCNC(=N)N)NC(=O)C(C)(C)NC(=O)[C@H](CC(=O)O)NC(=O)[C@H](CC(C)C)NC(=O)[C@H](Cc1ccc(O)cc1)NC(=O)[C@H](CCCCN)NC(=O)[C@H](CO)NC(=O)[C@H](Cc1ccc(O)cc1)NC(=O)[C@H](CC(=O)O)NC(=O)[C@H](CO)NC(=O)[C@@H](NC(=O)[C@H](Cc1ccccc1)NC(=O)[C@@H](NC(=O)CNC(=O)[C@H](Cc1c[nH]cn1)NC(=O)[C@H](CO)NC(=O)CCc1c[nH]cn1)[C@@H](C)O)[C@@H](C)O)C(C)C)C(=O)N[C@@H](Cc1c[nH]c2ccccc12)C(=O)N[C@@H](CC(C)C)C(=O)N[C@@H](CC(C)C)C(=O)N[C@@H](CO)C(=O)N[C@H](C(=O)O)[C@@H](C)O)C(=O)O)C(=O)O)C(=O)O)C(=O)O` [Example 21, N^ϵ24-[(4S)-4-[[(4S)-4-[[(4S)-4-[[(4S)-4-acetamido-4-carboxybutanoyl]amino]-4-carboxybutanoyl]amino]-4-carboxybutanoyl]amino]-4-carboxybutanoyl]-[Imp1, His3, Aib16, Lys24, Leu27, Ser28]-Glucagon] (Desaminohistidyl-SHGTFTSDYSKYLD[Aib]RRAQDFVK([γGlu-γGlu-γGlu-γGlu-Ac])WLLST-OH), on human glucagon receptor, the EC50 is 2 pM. The recovery at 250 μM in “physchem” is 104%.

The values above are taken from patent US9963496B2, “Stable glucagon analogues and use for treatment of hypoglycaemia” (Novo Nordisk A/S, priority 2014, dated 2018).
